Test results as given in ChEMBL document CHEMBL2062513, “Pd-mediated functionalization of polysubstituted pyrroles: their evaluation as potential inhibitors of PDE4” (Bioorg Med Chem Lett, 2012).

Key:
[1] = target: 3',5'-cyclic-AMP phosphodiesterase 4B (Homo sapiens) (UniProt Q07343); test: Inhibition of recombinant His-tagged PDE4B expressed in Sf9 cells at 30 uM preincubated for 15 mins before cAMP addition measured after 1 hr by luminescence assay
[2] = target: 3',5'-cyclic-AMP phosphodiesterase 4B (Homo sapiens) (UniProt Q07343); test: Inhibition of recombinant His-tagged PDE4B expressed in Sf9 cells preincubated for 15 mins before cAMP addition measured after 1 hr by luminescence assay

Sequence of 3',5'-cyclic-AMP phosphodiesterase 4B (Homo sapiens) (Q07343 whole entry): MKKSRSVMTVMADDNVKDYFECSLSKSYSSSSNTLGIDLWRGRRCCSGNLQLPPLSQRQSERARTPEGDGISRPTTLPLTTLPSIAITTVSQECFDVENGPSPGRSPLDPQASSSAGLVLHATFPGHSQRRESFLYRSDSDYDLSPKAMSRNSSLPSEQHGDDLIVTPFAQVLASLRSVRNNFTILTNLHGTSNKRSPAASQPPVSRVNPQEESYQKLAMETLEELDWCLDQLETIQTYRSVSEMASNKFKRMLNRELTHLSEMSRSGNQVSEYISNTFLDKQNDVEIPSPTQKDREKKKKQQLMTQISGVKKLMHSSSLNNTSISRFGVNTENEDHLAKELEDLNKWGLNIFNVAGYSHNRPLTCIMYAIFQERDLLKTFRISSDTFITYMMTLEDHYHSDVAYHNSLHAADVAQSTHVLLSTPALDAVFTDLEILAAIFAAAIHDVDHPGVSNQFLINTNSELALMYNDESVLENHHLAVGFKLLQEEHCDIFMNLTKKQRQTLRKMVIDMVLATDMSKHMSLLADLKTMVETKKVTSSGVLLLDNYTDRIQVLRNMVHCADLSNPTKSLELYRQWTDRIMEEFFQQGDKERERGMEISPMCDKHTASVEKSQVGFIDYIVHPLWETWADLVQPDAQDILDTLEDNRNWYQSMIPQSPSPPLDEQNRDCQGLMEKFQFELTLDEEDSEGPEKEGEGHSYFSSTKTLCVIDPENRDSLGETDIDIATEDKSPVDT

inhibition [1] [%] | inhibition [2] | Structure (SMILES)
22.1 |  | CCCCCCC#Cc1ccc(-n2c(-c3ccccc3)cc(C(=O)OCC)c2C(=O)c2ccccc2)cc1
74.7 | Dose-dependent effect | CCOC(=O)/C=C/c1ccc(-n2c(-c3ccccc3)cc(C(=O)OCC)c2C(=O)c2ccccc2)cc1
36.1 |  | CCOC(=O)c1cc(-c2ccccc2)n(-c2ccc(/C=C/C(=O)OC(C)(C)C)cc2)c1C(=O)c1ccccc1
45.2 |  | CCOC(=O)c1cc(-c2ccccc2)n(-c2ccc(/C=C/C(=O)OC)cc2)c1C(=O)c1ccccc1
24.8 |  | CCOC(=O)c1cc(-c2ccccc2)n(-c2ccc(-c3ccc(OC)cc3)cc2)c1C(=O)c1ccccc1
76.7 | Dose-dependent effect | CCOC(=O)c1cc(-c2ccccc2)n(-c2ccc(/C(C)=C/C(=O)OC)cc2)c1C(=O)c1ccccc1
